Values of other authors in US6887894B2, “Use of lipoic acid for improving the bioavailability of mineral salts” (BASF Aktiengesellschaft, priority 2000, dated 2005).

What was measured:
[1] = in vivo; cited from earlier work
[2] = in vivo; cited from earlier work; remark: listed apart in the source

| SMILES | effects on Zn bioavailability (results of previous studies) [1] | bioavailability of Zn2+ from organic or inorganic sources [2] |
| --- | --- | --- |
| O=C(O)C(=O)O [oxalic acid] | not uniform |  |
| CCC(=O)[O-].CCC(=O)[O-].[Zn+2] [zinc propionate] |  | roughly comparable |
